# Article PMC4635504, “Characterization of a bifidobacterial system that utilizes galacto-oligosaccharides” (Microbiology, 2015)
# Target: T1, BbrY_0420 (SBP of the ABC transporter) (Bifidobacterium breve, UniProt A0AAX3NJV5)
# T1 sequence (A0AAX3NJV5 1-449): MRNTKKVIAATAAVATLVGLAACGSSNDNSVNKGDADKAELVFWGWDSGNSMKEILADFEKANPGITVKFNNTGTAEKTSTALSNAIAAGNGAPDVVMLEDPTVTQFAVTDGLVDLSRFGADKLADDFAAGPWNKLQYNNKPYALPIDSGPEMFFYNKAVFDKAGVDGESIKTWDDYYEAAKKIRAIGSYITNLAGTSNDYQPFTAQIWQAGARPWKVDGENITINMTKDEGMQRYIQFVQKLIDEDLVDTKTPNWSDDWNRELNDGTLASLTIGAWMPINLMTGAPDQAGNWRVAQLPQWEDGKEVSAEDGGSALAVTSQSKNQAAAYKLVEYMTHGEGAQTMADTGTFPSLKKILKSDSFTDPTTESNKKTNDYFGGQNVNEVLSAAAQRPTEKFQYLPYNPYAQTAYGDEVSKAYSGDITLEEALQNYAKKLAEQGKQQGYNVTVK
# Details: HBS-P+ buffer, 25 °C, one-site binding model
smiles,measurement,value
"OC[C@H]1O[C@@H](O[C@@H]2[C@H](O)[C@@H](O)[C@H](O[C@H]3[C@H](O)[C@@H](O)C(O)O[C@@H]3CO)O[C@@H]2CO)[C@H](O)[C@@H](O)[C@H]1O (stereo partly shown) [4′-GL, 4′-galactosyllactose]",Kd,10.4 µM
